From PubChem BioAssay (NCI)
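The compound was tested at five concentrations on cells cultured in 96-well plates, with a 48-hour exposure period. GI50: concentration for 50% inhibition of growth. Definition used: TGI = concentration required for complete inhibition of growth.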

How the values were obtained:
Experiment in all cases: NCI-60 cell line screen, 48 h
[1] = system: NCI/ADR-RES ovarian
[2] = system: U251 CNS
[3] = system: OVCAR-8 ovarian
[4] = system: SR leukemia
[5] = system: UACC-257 melanoma
[6] = system: SK-MEL-2 melanoma
[7] = system: EKVX NSCLC
[8] = system: SK-OV-3 ovarian
[9] = system: RPMI-8226 leukemia
[10] = system: DU-145 prostate
[11] = system: HS 578T breast
[12] = system: OVCAR-3 ovarian
[13] = system: NCI-H23 lung
[14] = system: SN12C renal
[15] = system: SNB-19 CNS
[16] = system: SF-268 CNS
[17] = system: M14 melanoma
[18] = system: NCI-H226 lung
[19] = system: IGROV1 ovarian
[20] = system: SNB-75 CNS
[21] = system: HCC-2998 colon
[22] = system: TK-10 renal
[23] = system: PC-3 prostate
[24] = system: K-562 leukemia
[25] = system: HL-60(TB) leukemia
[26] = system: HCT-116 colon
[27] = system: ACHN renal
[28] = system: 786-0 renal
[29] = system: LOX IMVI melanoma
[30] = system: T-47D breast
[31] = system: KM12 colon
[32] = system: SK-MEL-5 melanoma
[33] = system: HT29 colon
[34] = system: RXF 393 renal
[35] = system: UO-31 renal
[36] = system: CCRF-CEM leukemia
[37] = system: MOLT-4 leukemia
[38] = system: NCI-H522 lung
[39] = system: SW-620 colon
[40] = system: BT-549 breast
[41] = system: HOP-62 NSCLC
[42] = system: A549 NSCLC
[43] = system: NCI-H460 lung
[44] = system: A498 renal
[45] = system: SF-539 CNS
[46] = system: MALME-3M melanoma
[47] = system: MCF7 breast
[48] = system: MDA-MB-435
[49] = system: SF-295 CNS
[50] = system: OVCAR-4 ovarian
[51] = system: SK-MEL-28 melanoma
[52] = system: CAKI-1 renal
[53] = system: MDA-MB-231 breast
[54] = system: UACC-62 melanoma
[55] = system: OVCAR-5 ovarian
[56] = system: HOP-92 NSCLC
[57] = system: MDA-MB-468 breast
[58] = system: COLO 205 colon
[59] = system: HCT-15 colon

## O=C(CNc1nc(-c2ccccc2)cs1)Nc1cccc([N+](=O)[O-])c1
[1]
  GI50: 175 nM
  TGI: 381 nM
[2]
  GI50: 262 nM
  TGI: 927 nM
[3]
  GI50: 222 nM
  TGI: 568 nM
[4]
  GI50: 175 nM
  TGI: > 34900 nM
[5]
  GI50: 256 nM
  TGI: 826 nM
[6]
  GI50: 177 nM
  TGI: 323 nM
[7]
  GI50: 231 nM
  TGI: 580 nM
[8]
  GI50: 128 nM
  TGI: 335 nM
[9]
  GI50: 291 nM
  TGI: 1230 nM
[10]
  GI50: 264 nM
  TGI: 730 nM
[11]
  GI50: 230 nM
  TGI: 739 nM
[12]
  GI50: 251 nM
  TGI: 708 nM
[13]
  GI50: 72.4 nM
  TGI: 202 nM
[14]
  GI50: 184 nM
  TGI: 469 nM
[15]
  GI50: 206 nM
  TGI: 500 nM
[16]
  GI50: 257 nM
  TGI: 725 nM
[17]
  GI50: 177 nM
  TGI: 347 nM
[18]
  GI50: 188 nM
  TGI: 444 nM
[19]
  GI50: 108 nM
  TGI: 459 nM
[20]
  GI50: 136 nM
  TGI: 320 nM
[21]
  GI50: 175 nM
  TGI: 321 nM
[22]
  GI50: 197 nM
  TGI: 660 nM
[23]
  GI50: 217 nM
  TGI: 1860 nM
[24]
  GI50: 223 nM
  TGI: 11200 nM
[25]
  GI50: 198 nM
  TGI: 937 nM
[26]
  GI50: 188 nM
  TGI: 590 nM
[27]
  GI50: 200 nM
  TGI: 436 nM
[28]
  GI50: 253 nM
  TGI: 663 nM
[29]
  GI50: 106 nM
  TGI: 238 nM
[30]
  GI50: 218 nM
  TGI: 632 nM
[31]
  GI50: 246 nM
  TGI: 693 nM
[32]
  GI50: 166 nM
  TGI: 302 nM
[33]
  GI50: 142 nM
  TGI: 357 nM
[34]
  GI50: 128 nM
  TGI: 269 nM
[35]
  GI50: 169 nM
  TGI: 444 nM
[36]
  GI50: 58.7 nM
  TGI: 4520 nM
[37]
  GI50: 117 nM
  TGI: 2530 nM
[38]
  GI50: 129 nM
  TGI: 297 nM
[39]
  GI50: 66.3 nM
  TGI: 914 nM
[40]
  GI50: 167 nM
  TGI: 347 nM
[41]
  GI50: 216 nM
  TGI: 469 nM
[42]
  GI50: 323 nM
  TGI: 1390 nM
[43]
  GI50: 136 nM
  TGI: 616 nM
[44]
  GI50: 223 nM
  TGI: 555 nM
[45]
  GI50: 180 nM
  TGI: 358 nM
[46]
  GI50: 172 nM
  TGI: 314 nM
[47]
  GI50: 166 nM
  TGI: 551 nM
[48]
  GI50: 170 nM
  TGI: 319 nM
[49]
  GI50: 223 nM
  TGI: 519 nM
[50]
  GI50: 223 nM
  TGI: 511 nM
[51]
  GI50: 199 nM
  TGI: 379 nM
[52]
  GI50: 182 nM
  TGI: 558 nM
[53]
  GI50: 196 nM
  TGI: 375 nM
[54]
  GI50: 119 nM
  TGI: 245 nM
[55]
  GI50: 203 nM
  TGI: 413 nM
[56]
  GI50: 243 nM
  TGI: 660 nM
[57]
  GI50: 185 nM
  TGI: 358 nM
[58]
  GI50: 193 nM
  TGI: 367 nM
[59]
  GI50: 93 nM
  TGI: 413 nM
